Data published in patent publication US20090023700A1, “NEUROPROTECTIVE TREATMENTS” (University of Louisville Research Foundation, priority 2007, published 2009).
Where “and” joins values, the source holds several entries; their conditions need not be identical. Equal values may be shown once.

Tests used:
Ser/Thr phosphatases = settings: cited from earlier work
[1] = test system: human aortic endothelial cells; assay: Apoptosis of serum-deprived cultured endothelial cells; assay type: cell-based; settings: for apoptotic endothelial cells: 3 μM
Protocol: To determine whether bpV(phen) can directly promote survival of endothelial cells, it was tested on cultured human aortic endothelial cells deprived of serum. […] With 3 μM bpV(phen), only ˜1.3% were apoptotic in both the 0 and 5% serum groups (FIG. 9A). Eighteen hours after plating under control conditions, between 5 and 13% of endothelial cells were apoptotic, whereas treatment with 3 μM bpV(phen) reduced apoptosis to ˜2-3% (FIG. 9B).
Endothelial cell cultures. Human aortic endothelial cells (Lonza Walkersville) were plated at 5×10^4 cells per well in 24 well polystyrene plates and incubated with different concentrations of bpV(phen) for 6 or 18 h at 37° C. in DMEM/Ham's F-12 (BioWhittaker) plus EGM-2 growth factor supplements [EGM-2 SingleQuots (Lonza Walkersville) containing hydrocortisone, human epidermal growth factor, FBS, vascular endothelial growth factor, human basic fibroblast growth factor, R3-IGF-1, ascorbic acid, heparin, and gentamicin/amphotericin-B] and 10-20% fetal calf serum. […] Afterward, the endothelial cells were fixed in 4% paraformaldehyde for 2 h, the nuclei were stained with 2.5 μg/ml DNA dye Hoechst 33258 (bis-benzimide; Sigma) in PBS containing 0.1% Triton X-100 for 30 min, and the cells were covered with Fluoromount-G (Southern Biotechnology) to reduce fluorescence-induced fading (Invitrogen).
Quantitative measurements and statistics. The extent of sensory innervation of the gracile nucleus was determined by measuring the CTB-labeled terminal fiber area in every third section as described previously (Baker et al. (2007) Exp Neurol 205:82-91). In short, images of every third section through the right and left gracile nuclei were analyzed using the density slice feature of the Scion Image software. […] Images of EC-stained sections were captured, and the positive areas were measured with Scion Image. […] The number of spared myelinated axons at C3 was counted in semithin sections using a 63× oil objective in 15.7×15.7 μm grids placed over the middle part of each fasciculus gracilis (see FIG. 4D-4F). […]

AP1 = settings: macrophages; cited from earlier work
[2] = test system: Madin-Darby canine kidney cells; settings: H2O2-susceptible Madin-Darby canine kidney cells; cited from earlier work
cdc25B PTP = target: T1, cdc25B PTP (Mus musculus, UniProt P30306); settings: mouse enzyme; cited from earlier work
T1 sequence (P30306 1-576): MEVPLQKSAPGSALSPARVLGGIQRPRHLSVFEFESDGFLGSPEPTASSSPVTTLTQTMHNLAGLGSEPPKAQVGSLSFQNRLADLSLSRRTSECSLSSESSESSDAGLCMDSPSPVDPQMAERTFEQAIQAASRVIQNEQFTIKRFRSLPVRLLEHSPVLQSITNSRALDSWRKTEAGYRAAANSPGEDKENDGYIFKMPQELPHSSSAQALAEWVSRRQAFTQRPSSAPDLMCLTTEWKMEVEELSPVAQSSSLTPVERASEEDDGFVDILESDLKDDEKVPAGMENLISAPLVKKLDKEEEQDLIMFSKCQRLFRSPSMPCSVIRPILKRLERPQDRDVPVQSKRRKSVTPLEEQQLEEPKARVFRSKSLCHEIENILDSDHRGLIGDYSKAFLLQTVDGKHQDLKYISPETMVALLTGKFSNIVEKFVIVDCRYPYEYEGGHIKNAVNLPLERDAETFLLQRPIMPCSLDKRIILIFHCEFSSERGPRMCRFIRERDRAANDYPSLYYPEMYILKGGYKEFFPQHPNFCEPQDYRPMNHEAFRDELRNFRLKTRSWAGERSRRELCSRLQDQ

[3] = test system: T9 contusive spinal cord injury; assay: T9 spinal cord contusion, intrathecal infusion: CTB tracing, white matter (EC) and C3 axon histology; assay type: in vivo, rat; settings: for CTB-traced fiber area in the gracile nucleus: PBS 43+/−17
[4] = Observation of overall health status, general behavior and grooming; assay type: in vivo, rat; settings: any of the bpV(phen)- and PBS-treated groups
Protocol: (§1) Whether bpV(phen) might have detrimental side effects, such as inducing pain at the level of the injury, was tested. Severe spinal cord injury can induce hypersensitivity and mechanical allodynia (a painful response to a nonpainful tactile skin stimulus) at the level of injury. […] Differences between any of the bpV(phen)- and PBS-treated groups in the overall health status, general behavior, and grooming of the rats were not observed.

[5] = test system: T9 contusive spinal cord injury; assay: Semmes-Weinstein filament test for at-level pain (allodynia); assay type: in vivo, rat; settings: 100 μM, 28 d L5/6 infusion
Protocol: as §1

[6] = 100 μM, 7 d L5/6 infusion started immediately after 0.3 mm contusion

**Q.** Which “inhibition of Ser/Thr phosphatases” value (Ser/Thr phosphatases) does the source give for `O.O.O.OO.OO.[K+].[OH-].[V].c1cnc2c(c1)ccc1cccnc12` [bpV(phen), potassium bisperoxo(1,10-phenanthroline)oxovanadate (V)] here?
**A.** not

**Q.** And the endothelial apoptosis ([1]; 1 μM, 18 h, 0, 1.25, 2.5 and 5% serum)?
**A.** only reduces endothelial apoptosis in the 2.5 and 5% serum groups

**Q.** What about the apoptotic endothelial cells ([1]; 6 h after plating, 0 and 5% serum groups, control 2-3%) of the same compound?
**A.** ~1.3%

**Q.** What about the apoptotic endothelial cells ([1]; 18 h after plating, serum deprived, control 5-13%) of the same compound?
**A.** 2-3%

**Q.** And the AP1 activation (AP1)?
**A.** activates

**Q.** What about the cell death [2] of the same compound?
**A.** does not cause death

**Q.** And the “inhibition of catalytic activity of purified cdc25B PTP” value (cdc25B PTP)?
**A.** can inhibit

**Q.** And the “CTB-traced fiber area in the gracile nucleus” value (shortened to “CTB-traced fiber area”) ([3]; 30 μM, 7 d L5/6 infusion started immediately after 0.3 mm contusion)?
**A.** 60+/−5%

**Q.** What about the “CTB-labeled terminal fiber area in the gracile nucleus” value ([3]; 30 μM, 7 d intrathecal infusion at T9 started immediately after 0.3 mm contusion, PBS 17+/−7%) of the same compound?
**A.** 47+/−6 % of sham

**Q.** And the “area of spared white matter in the dorsal column at injury epicenter” value ([3]; 30 μM, 7 d intrathecal infusion at T9 started immediately after 0.3 mm contusion, PBS 28+/−6%)?
**A.** 50+/−8 % of sham

**Q.** And the “spared dorsal column white matter at the epicenter” value ([3]; 100 μM, 7 d L5/6 infusion started 4 h after 0.3 mm contusion, PBS 37+/−6%)?
**A.** 78+/−7%

**Q.** And the “gracile nucleus innervation (CTB)” value ([3]; 100 μM, 7 d L5/6 infusion started 4 h after 0.3 mm contusion, PBS 66+/−11%)?
**A.** 100+/−7%

**Q.** What about the total white matter ([3]; 100 μM, 7 d L5/6 infusion started 4 h after 0.3 mm contusion, PBS 70+/−5%) of the same compound?
**A.** 103+/−4%

**Q.** What about the “area of spared dorsal column white matter at the injury epicenter” value [3, 6] of the same compound?
**A.** 58+/−12%

**Q.** And the “CTB-traced fiber area” value [3, 6]?
**A.** 93+/−11%

**Q.** And the “total white matter at the epicenter” value ([3]; 100 μM, 7 d L5/6 infusion started immediately after 0.3 mm contusion, PBS 68+/−6%)?
**A.** 90+/−12%

**Q.** And the “CTB-labeled innervation of the gracile nucleus” value ([3]; 100 μM, 28 d L5/6 infusion started 4 h after contusion, 42 d after injury, 14 d after end of infusion, PBS 68+/−11%)?
**A.** 106+/−9 % of sham

**Q.** And the “area of spared white matter in the dorsal column at the T9 injury epicenter” value ([3]; 100 μM, 28 d L5/6 infusion started 4 h after contusion, 42 d after injury, PBS 48+/−8%)?
**A.** 79+/−7% and 80%

**Q.** And the “number of myelinated axons in fasciculus gracilis at C3” value ([3]; 100 μM, 28 d L5/6 infusion started 4 h after contusion, 42 d after injury, PBS 63+/−6%)?
**A.** 102+/−5%

**Q.** What about the “CTB-traced fiber area” value ([3]; 300 μM, 7 d L5/6 infusion started immediately after 0.3 mm contusion) of the same compound?
**A.** 80+/−14%

**Q.** What about the “differences versus PBS groups in overall health status, general behavior and grooming” value [4] of the same compound?
**A.** not observed

**Q.** And the “induction of pain by chronic infusion” value [5]?
**A.** do not induce pain

**Q.** And the “Semmes-Weinstein filament size evoking a response (pain at level of injury)” value ([5]; entire test period)?
**A.** not different from those of the PBS group
